Assay results taken from patent US8722727B2, “Antifungal agents” (Seynix, Inc., priority 2008, dated 2014).

What follows are compounds tested against T1, glucan synthase (GS) (Candida albicans, UniProt O13428) (assay: Glucan synthase inhibition (polymerization assay, 96-well)). Settings: glucan synthase prepared from Candida albicans MY1055; 60 min incubation at 22° C.; read-out: Candida Albicans GS IC50 (ng/mL) (converted).
T1 construct: Extraction of GS activity from membranes was performed at a protein concentration of 5 mg/mL in extraction buffer; endogenous in cells; host or cells: Candida albicans MY1055 (membrane fraction, detergent extraction, product entrapment)
Assay type: biochemical
Method: The in vitro evaluation of glucan synthase inhibitory activity of compounds was measured in a polymerization assay in 96-well format. Each well contained 100 μL of ^3H-UDPG at 0.5 mM (6000 to 8000 dpm/nmol), 50 mM HEPES pH 7.5 (Sigma), 10% w/v glycerol (Sigma), 1.5 mg/mL bovine serum albumin (Sigma A 9647. Lot 44H0190), 25 mM KF (Fisher), 1 mM EDTA (Gibco ULTRAPURE), 25 μM GTP-γ-S, enzyme sufficient to give 3 to 6 nmoles incorporation during the 60 min incubation at 22° C., and test compound added from wells in 3-fold serial dilutions in 100% DMSO (1 μL/well). The reaction was stopped by the addition of 100 μL of 20% trichloroacetic acid. Plates were chilled for a minimum of 10 min, and precipitated glucan collected by filtration on GF/C plates (Packard UNIFILTER®-96), washed with 5 cycles of water (about 1 mL/well each cycle) using a Packard FILTERMATE HARVESTER. 40 μL/well scintillation fluid (Packard ULTIMA GOLD TM-XR) was added and the sealed plates counted in a WALLAC BETA counter in top-counting mode at an efficiency of approximately 40%.
Stock solutions were stored at 10 mg/mL in DMSO at −20° C. For each new enzyme preparation, the initial titration performed started at 1 mg/mL, which was prepared by making a 10-fold dilution in DMSO (5 μL to 50 μL). 40 μL of this stock was placed in column 12 of a round-bottomed 96-well microtiter plate. 40 μL DMSO was added to columns 1 to 11 in the same row and ten 3-fold serial dilutions performed, by transferring 20 μL from column 12 to column 11 etc., with 4 mixings before each transfer. No test compound was transferred to from column 2 to column 1. Duplicate aliquots of 1 μL of all 12 dilutions were then transferred to the side walls of a 96-well Bioblock 1.1 mL plate (Fisher brand) to create two rows. Graphs of the primary data were created in PRISM software (the average of two determinations) using PRISM's curve fitting program (sigmoidal dose response non-linear regression). The amount of compound required to inhibit glucan synthase activity by 50% in this assay (IC50-ng/mL) was calculated.
Routine analysis was performed with glucan synthase (GS) prepared from Candida albicans MY1055 by the following procedure: MY1055 was grown in 10 liters YPD medium (10 g yeast extract, 20 g tryptone, 20 g glucose per liter) with vigorous shaking at 30° C., to early stationary phase. Cells were harvested by centrifugation, the pellet was washed and frozen at −70° C. until breakage. Thawed pellets were shaken with an equal volume of breakage buffer (50 mM HEPES pH 7.4, 10% glycerol, 1 mM EDTA, 1 mM PMSF, 1 mM DTT) and 4 times their weight of 0.5 mm acid washed glass beads for 2 hours at 4° C. Extent of breakage was assessed visually at 40× magnification. After low speed centrifugation to remove cell debris, the supernatant was centrifuged at 100,000×g for 60 min. to separate membranes plus ribosomes from cytoplasmic components. Membranes were further washed two additional times with breakage buffer using the same centrifugation conditions and finally suspended in breakage buffer at 25 to 30 mg/mL protein (Biorad) for storage at −70° C. Extraction of GS activity from membranes was performed at a protein concentration of 5 mg/mL in extraction buffer (50 mM NaPO4 pH 7.5, 0.1 M KCl, 0.1M Na citrate, 20% glycerol, 5 μM GTP-γ-S, 1 mM DTT, 1 mM PMSF, 3 μg/mL pepstatin) plus 0.25% W1 by gentle mixing at 4° C. for 60 min, followed by centrifugation at 100,000×g for 60 min. After centrifugation, clear supernatant was removed from a pellet consisting of a hard layer usually with small amounts of gelatinous unextracted membranes above it.
Trapping was initiated immediately by 5-fold dilution in trapping buffer (50 mM HEPES pH 7.5, 10 mM KF, 1 mM EDTA, 2 mg/mL BSA) plus 2.5 mM UDPG and 10 μM GTP-γ-S. After incubation at 25° C. for 60 to 90 minutes, glucan was harvested by low speed centrifugation (3,000×g, 10 min). […]

T1 sequence (O13428 1-1897): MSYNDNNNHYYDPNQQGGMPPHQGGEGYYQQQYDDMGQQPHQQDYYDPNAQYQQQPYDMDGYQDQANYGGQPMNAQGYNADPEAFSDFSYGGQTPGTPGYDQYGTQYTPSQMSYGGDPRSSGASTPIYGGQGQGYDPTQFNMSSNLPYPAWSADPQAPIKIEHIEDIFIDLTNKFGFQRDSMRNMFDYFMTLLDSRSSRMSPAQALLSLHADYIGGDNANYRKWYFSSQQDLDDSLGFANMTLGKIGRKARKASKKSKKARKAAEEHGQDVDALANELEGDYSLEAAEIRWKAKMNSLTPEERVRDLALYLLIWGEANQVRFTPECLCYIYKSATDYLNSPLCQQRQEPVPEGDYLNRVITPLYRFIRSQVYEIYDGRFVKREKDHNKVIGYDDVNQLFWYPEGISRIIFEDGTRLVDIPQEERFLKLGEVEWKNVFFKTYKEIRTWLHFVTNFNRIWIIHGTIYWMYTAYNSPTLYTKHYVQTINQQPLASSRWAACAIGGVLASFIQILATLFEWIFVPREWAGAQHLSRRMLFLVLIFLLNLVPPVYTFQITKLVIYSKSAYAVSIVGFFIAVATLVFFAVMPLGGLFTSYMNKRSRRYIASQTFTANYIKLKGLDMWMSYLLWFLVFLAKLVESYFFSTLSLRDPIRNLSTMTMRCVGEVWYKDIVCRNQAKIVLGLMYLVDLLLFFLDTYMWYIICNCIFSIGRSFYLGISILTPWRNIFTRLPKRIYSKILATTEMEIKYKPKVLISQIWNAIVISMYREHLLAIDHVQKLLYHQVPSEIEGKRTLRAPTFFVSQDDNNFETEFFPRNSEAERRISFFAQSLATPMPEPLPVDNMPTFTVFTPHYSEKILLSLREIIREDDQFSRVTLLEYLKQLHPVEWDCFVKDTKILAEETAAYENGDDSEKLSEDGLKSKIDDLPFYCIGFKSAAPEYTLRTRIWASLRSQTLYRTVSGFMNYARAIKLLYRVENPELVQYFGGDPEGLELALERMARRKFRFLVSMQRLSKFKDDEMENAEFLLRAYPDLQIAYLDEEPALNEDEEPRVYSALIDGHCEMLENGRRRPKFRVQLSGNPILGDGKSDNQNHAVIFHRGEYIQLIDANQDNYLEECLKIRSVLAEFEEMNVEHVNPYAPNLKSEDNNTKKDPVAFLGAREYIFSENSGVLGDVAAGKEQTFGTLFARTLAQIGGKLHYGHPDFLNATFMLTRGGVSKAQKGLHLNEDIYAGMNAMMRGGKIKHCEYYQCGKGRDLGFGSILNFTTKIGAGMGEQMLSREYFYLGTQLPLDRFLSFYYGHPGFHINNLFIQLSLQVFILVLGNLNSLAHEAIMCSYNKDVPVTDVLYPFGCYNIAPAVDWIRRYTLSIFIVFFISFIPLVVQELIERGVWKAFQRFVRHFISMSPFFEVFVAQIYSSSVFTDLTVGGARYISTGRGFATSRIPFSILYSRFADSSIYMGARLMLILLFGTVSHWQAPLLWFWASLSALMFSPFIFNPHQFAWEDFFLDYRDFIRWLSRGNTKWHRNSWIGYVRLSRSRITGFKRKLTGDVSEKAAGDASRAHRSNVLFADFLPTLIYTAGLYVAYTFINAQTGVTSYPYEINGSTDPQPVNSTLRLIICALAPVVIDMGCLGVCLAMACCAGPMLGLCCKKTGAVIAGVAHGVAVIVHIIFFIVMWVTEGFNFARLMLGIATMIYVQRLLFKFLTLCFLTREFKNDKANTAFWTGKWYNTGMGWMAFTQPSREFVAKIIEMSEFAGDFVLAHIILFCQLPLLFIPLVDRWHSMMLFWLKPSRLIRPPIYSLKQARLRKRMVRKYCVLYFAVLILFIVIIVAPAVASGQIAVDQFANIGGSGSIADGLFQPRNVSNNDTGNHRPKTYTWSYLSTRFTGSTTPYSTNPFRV
T1 sequence (O42825 1-195 partner limits assumed): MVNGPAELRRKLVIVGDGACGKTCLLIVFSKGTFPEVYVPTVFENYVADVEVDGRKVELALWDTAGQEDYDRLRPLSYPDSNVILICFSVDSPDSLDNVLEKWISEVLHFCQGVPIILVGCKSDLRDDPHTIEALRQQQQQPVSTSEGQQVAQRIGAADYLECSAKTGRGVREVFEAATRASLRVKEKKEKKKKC

| SMILES | IC50 |
| --- | --- |
| CC(C)[C@@H](C)[C@@]1(C)CC[C@]2(C)[C@H]3CC[C@@H]4[C@@]5(COC[C@@]4(C)[C@@H](OCC(C)(C)N)[C@H](n4nnc(N)n4)C5)C3=CC[C@@]2(C)[C@@H]1C(=O)O [Example 6, (1S,4aR,6aS,7R,8R,10aR,10bR,12aR,14R,15R)-15-(2-amino-2-methylpropoxy)-14-(5-amino-2H-tetrazol-2-yl)-8-[(1R)-1,2-dimethylpropyl]-1,6,6a,7,8,9,10,10a,10b,11,12,12a-dodecahydro-1,6a,8,10a-tetramethyl-4H-1,4a-propano-2H-phenanthro[1,2-c]pyran-7-carboxylic acid] | 4.79 nM |
| CC(C)[C@@H](C)[C@@]1(C)CC[C@]2(C)[C@H]3CC[C@@H]4[C@@]5(COC[C@@]4(C)[C@@H](OCC(C)(C)N)[C@H](n4ncnn4)C5)C3=CC[C@@]2(C)[C@@H]1C(=O)O [Example 1B, (1S,4aR,6aS,7R,8R,10aR,10bR,12aR,14R,15R)-15-(2-amino-2-methylpropoxy)-8-[(1R)-1,2-dimethylpropyl]-14-(2H-tetrazol-2-yl)-1,6,6a,7,8,9,10,10a,10b,11,12,12a-dodecahydro-1,6a,8,10a-tetramethyl-4H-1,4a-propano-2H-phenanthro[1,2-c]pyran-7-carboxylic acid] | 9.81 nM |
| CC(C)[C@@H](C)[C@@]1(C)CC[C@]2(C)[C@H]3CC[C@@H]4[C@@]5(COC[C@@]4(C)[C@@H](OCC(C)(N)CCO)[C@H](n4nnc(N)n4)C5)C3=CC[C@@]2(C)[C@@H]1C(=O)O (stereo partly drawn) [Example 122, (1S,4aR,6aS,7R,8R,10aR,10bR,12aR,14R,15R)-15-(2-amino-4-hydroxy-2-methylbutoxy)-14-(5-amino-2H-tetrazol-2-yl)-8-[(1R)-1,2-dimethylpropyl]-1,6,6a,7,8,9,10,10a,10b,11,12,12a-dodecahydro-1,6a,8,10a-tetramethyl-4H-1,4a-propano-2H-phenanthro[1,2-c]pyran-7-carboxylic acid] | 16.7 nM |
| CC(C)[C@@H](C)[C@@]1(C)CC[C@]2(C)[C@H]3CC[C@@H]4C5(COCC4(C)[C@@H](OCC4CCCN4C)[C@H](n4nnc(N)n4)C5)C3=CC[C@@]2(C)[C@@H]1C(=O)O (stereo in doubt) [Example 46, (1S,4aR,6aS,7R,8R,10aR,10bR,12aR,14R,15R)-14-(5-amino-2H-tetrazol-2-yl)-8-[(1R)-1,2-dimethylpropyl]-15-[(1-methyl-2-pyrrolidinyl)methoxy]-1,6,6a,7,8,9,10,10a,10b,11,12,12a-dodecahydro-1,6a,8,10a-tetramethyl-4H-1,4a-propano-2H-phenanthro[1,2-c]pyran-7-carboxylic acid] | 21.4 nM |
| Cc1nnnn1[C@@H]1C[C@@]23COC[C@](C)([C@@H]2CC[C@H]2C3=CC[C@@]3(C)[C@H](C(=O)O)[C@@](C)([C@H](C)C(C)C)CC[C@]23C)[C@H]1OCCN [Example 41A, (1S,4aR,6aS,7R,8R,10aR,10bR,12aR,14R,15R)-15-(2-aminoethoxy)-8-[(1R)-1,2-dimethylpropyl]-14-(5-methyl-1H-tetrazol-1-yl)-1,6,6a,7,8,9,10,10a,10b,11,12,12a-dodecahydro-1,6a,8,10a-tetramethyl-4H-1,4a-propano-2H-phenanthro[1,2-c]pyran-7-carboxylic acid] | 199 nM |
| CC(C)[C@@H](C)[C@@]1(C)CC[C@]2(C)[C@H]3CC[C@@H]4[C@@]5(COC[C@@]4(C)[C@@H](OC[C@@](C)(C(C)C)N(C)C)[C@H](n4nnc(N)n4)C5)C3=CC[C@@]2(C)[C@@H]1C(=O)O [Example 8, (1S,4aR,6aS,7R,8R,10aR,10bR,12aR,14R,15R)-14-(5-amino-2H-tetrazol-2-yl)-15-[[(2R)-2-(dimethylamino)-2,3-dimethylbutyl]oxy]-8-[(1R)-1,2-dimethylpropyl]-1,6,6a,7,8,9,10,10a,10b,11,12,12a-dodecahydro-1,6a,8,10a-tetramethyl-4H-1,4 a-propano-2H-phenanthro[1,2-c]pyran-7-carboxylic acid] | 13.2 nM |
| CN[C@@](C)(CO[C@H]1[C@H](n2nnc(N)n2)C[C@@]23COC[C@]1(C)[C@@H]2CC[C@H]1C3=CC[C@@]2(C)[C@H](C(=O)O)[C@@](C)([C@H](C)C(C)C)CC[C@]12C)C(C)C [Example 52, (1S,4aR,6aS,7R,8R,10aR,10bR,12aR,14R,15R)-14-(5-amino-2H-tetrazol-2-yl)-15-[[(2R)-2,3-dimethyl-2-(methylamino)butyl]oxy]-8-[(1R)-1,2-dimethylpropyl]-1,6,6a,7,8,9,10,10a,10b,11,12,12a-dodecahydro-1,6a,8,10a-tetramethyl-4H-1,4a-propano-2H-phenanthro[1,2-c]pyran-7-carboxylic acid] | 2.99 nM |

Next, values leading:

| IC50 | SMILES |
| --- | --- |
| 11.7 nM | CC[C@H](C)[C@@H](CO[C@H]1[C@H](n2nnc(N)n2)C[C@@]23COC[C@]1(C)[C@@H]2CC[C@H]1C3=CC[C@@]2(C)[C@H](C(=O)O)[C@@](C)([C@H](C)C(C)C)CC[C@]12C)N(C)C [Example 101, (1S,4aR,6aS,7R,8R,10aR,10bR,12aR,14R,15R)-14-(5-amino-2H-tetrazol-2-yl)-15-[[(2S,3S)-2-(dimethylamino)-3-methylpentyl]oxy]-8-[(1R)-1,2-dimethylpropyl]-1,6,6a,7,8,9,10,10a,10b,11,12,12a-dodecahydro-1,6a,8,10a-tetramethyl-4H-1,4a-propano-2H-phenanthro[1,2-c]pyran-7-carboxylic acid] |
| 19.1 nM | CC(C)[C@@H](C)[C@@]1(C)CC[C@]2(C)[C@H]3CC[C@@H]4[C@@]5(COC[C@@]4(C)[C@@H](OCCN(C)C)[C@H](n4nnc(N)n4)C5)C3=CC[C@@]2(C)[C@@H]1C(=O)O [Example 114, (1S,4aR,6aS,7R,8R,10aR,10bR,12aR,14R,15R)-14-(5-amino-2H-tetrazol-2-yl)-15-[2-(dimethylamino)ethoxy]-8-[(1R)-1,2-dimethylpropyl]-1,6,6a,7,8,9,10,10a,10b,11,12,12a-dodecahydro-1,6a,8,10a-tetramethyl-4H-1,4a-propano-2H-phenanthro[1,2-c]pyran-7-carboxylic acid] |
| 10.7 nM | CC(C)[C@@H](C)[C@@]1(C)CC[C@]2(C)[C@H]3CC[C@@H]4[C@@]5(COC[C@@]4(C)[C@@H](OC[C@](C)(NCc4ccccc4)C(C)C)[C@H](n4nnc(N)n4)C5)C3=CC[C@@]2(C)[C@@H]1C(=O)O [Example 61, (1S,4aR,6aS,7R,8R,10aR,10bR,12aR,14R,15R)-14-(5-amino-2H-tetrazol-2-yl)-15-[[(2R)-2,3-dimethyl-2-[(phenylmethyl)amino]butyl]oxy]-8-[(1R)-1,2-dimethylpropyl]-1,6,6a,7,8,9,10,10a,10b,11,12,12a-dodecahydro-1,6a,8,10a-tetramethyl-4H-1,4a-propano-2H-phenanthro[1,2-c]pyran-7-carboxylic acid] |
| 5.98 nM | CC(C)[C@@H](C)[C@@]1(C)CC[C@]2(C)[C@H]3CC[C@@H]4[C@@]5(COC[C@@]4(C)[C@@H](OC[C@@H](C(C)C)N(C)C)[C@H](n4nnc(N)n4)C5)C3=CC[C@@]2(C)[C@@H]1C(=O)O [Example 80, (1S,4aR,6aS,7R,8R,10aR,10bR,12aR,14R,15R)-14-(5-amino-2H-tetrazol-2-yl)-15-[[(2R)-2-(dimethylamino)-3-methylbutyl]oxy]-8-[(1R)-1,2-dimethylpropyl]-1,6,6a,7,8,9,10,10a,10b,11,12,12a-dodecahydro-1,6a,8,10a-tetramethyl-4H-1,4a-propano-2H-phenanthro[1,2-c]pyran-7-carboxylic acid] |
